In patent US20050065176A1, “Combinations” (priority 2003, published 2005) one finds melting point and Cmax data, which are given here for 6 molecules.

Data set [1] can be described thus: Plasma concentration (Cmax) of gabapentin in the rat.

Where a name gives a salt, the structure may show the parent alone.

`CCC[C@@H](C)C[C@H](CN)C(=O)O` (as salt: hydrochloride) came in with a melting point of 226.3 to 228 °C.
As for `CCCC(C)(C)CC(CN)C(=O)O.Cl` (stereo not drawn), the melting point fell in the range of 229.5 to 231 °C.
On the same count and under the same terms, then `CCCC(C)(C)C[C@H](N)CC(=O)O` (as salt: hydrochloride) (hydrate or solvate), with 194.2 to 195.2 °C.
`NCC1(CC(=O)O)CCCCC1` [gabapentin, 1-(aminomethyl)-cyclohexylacetic acid]: the peak concentration (Cmax) in data set [1] was in the range of 520 to 10500 ng/mL.
Turning to `CCCC[C@@H](C)C[C@H](N)CC(=O)O` (as salt: hydrochloride), the melting point was 142.5 to 143.3 °C.
`CCC[C@@H](C)C[C@H](N)CC(=O)O.Cl` showed a melting point of 142.5 to 142.7 °C.
